Data: ChEMBL document CHEMBL6115036, “Exploration of membrane-active cephalosporin derivatives as potent antibacterial agents against Staphylococcus aureus biofilms and persisters” (Eur J Med Chem, 2025)
In brackets after ≈: the same amount, converted by molar mass. Activity calls are given as the source filed them. The rule behind the calls is not given here.

How the values were obtained:
[1] = test system: Stenotrophomonas maltophilia; test: Antimicrobial activity against Stenotrophomonas maltophilia incubated for 16 to 18 hrs by broth dilution assay; assay type: functional; settings: time 16-18 hrs
Enterococcus faecalis = test: Antimicrobial activity against Enterococcus faecalis incubated for 16 to 18 hrs by broth dilution assay; assay type: functional; settings: time 16-18 hrs
Escherichia coli = test: Antimicrobial activity against Escherichia coli incubated for 16 to 18 hrs by broth dilution assay; assay type: functional; settings: time 16-18 hrs
Staphylococcus aureus [2] = test: Antimicrobial activity against Staphylococcus aureus incubated for 16 to 18 hrs by broth dilution assay; assay type: functional; settings: time 16-18 hrs
[3] = Hemolytic activity in sheep red blood cells incubated for 1 hr; assay type: toxicity, cell-based, Ovis aries, Erythrocyte
Staphylococcus aureus [4] = test: Induction of inner membrane permeability in Staphylococcus aureus assessed as increase in fluorescence intensity at 16 ug/ml measured for 20 mins by PI dye based analysis; assay type: functional, organism-based; settings: dose 16.0 µg/ml
Staphylococcus aureus [5] = test: Induction of cytoplasmic membrane depolarization in Staphylococcus aureus assessed as increase in fluorescence intensity at 16 ug/ml measured for 20 mins by DiSC3(5) dye based analysis; assay type: functional, organism-based; settings: dose 16.0 µg/ml

Structure (SMILES)	MIC [1]	MIC (Enterococcus faecalis)	MIC (Escherichia coli)	MIC (Staphylococcus aureus [2])	HC50 at 1 h [3]	Activity (Staphylococcus aureus [4])	Activity (Staphylococcus aureus [5])
CCCCCC[n+]1ccc(-c2cc[n+](CC3=C(C(=O)[O-])N4C(=O)[C@@H](NC(=O)Cc5ccccc5)[C@H]4SC3)cc2)cc1.O=C([O-])C(F)(F)F	16 µg/mL	16 µg/mL	16 µg/mL	0.125 µg/mL	> 1280 µg/mL		
CCCCCCCCCCCCCCNC(=O)c1ccc[n+](CC2=C(C(=O)O)N3C(=O)[C@@H](NC(=O)Cc4ccccc4)[C@H]3SC2)c1.[I-]	> 128 µg/mL	16 µg/mL	> 128 µg/mL	2 µg/mL	155 µg/mL	inactive	inactive
CCCCNC(=O)c1cc[n+](CC2=C(C(=O)O)N3C(=O)[C@@H](NC(=O)Cc4ccccc4)[C@H]3SC2)cc1.[I-]	64 µg/mL	32 µg/mL	32 µg/mL	0.125 µg/mL	> 1280 µg/mL		
CC[n+]1ccc(SCC2=C(C(=O)O)N3C(=O)[C@@H](NC(=O)Cc4ccccc4)[C@H]3SC2)cc1.O=C([O-])C(F)(F)F	8 µg/mL	8 µg/mL	8 µg/mL	0.063 µg/mL			
CCCCNC(=O)c1ccc[n+](CC2=C(C(=O)OCc3ccc(OC)cc3)N3C(=O)[C@@H](NC(=O)Cc4ccccc4)[C@H]3SC2)c1.[I-]				0.25 µg/mL			
CCCC[n+]1ccc(SCC2=C(C(=O)O)N3C(=O)[C@@H](NC(=O)Cc4ccccc4)[C@H]3SC2)cc1.O=C([O-])C(F)(F)F	8 µg/mL	8 µg/mL	4 µg/mL	0.063 µg/mL			
CCCCCC[n+]1ccc(SCC2=C(C(=O)O)N3C(=O)[C@@H](NC(=O)Cc4ccccc4)[C@H]3SC2)cc1.O=C([O-])C(F)(F)F	32 µg/mL	8 µg/mL	32 µg/mL	0.063 µg/mL			
CCCCCCCCNC(=O)c1cc[n+](CC2=C(C(=O)OCc3ccc(OC)cc3)N3C(=O)[C@@H](NC(=O)Cc4ccccc4)[C@H]3SC2)cc1.[I-]				0.25 µg/mL		Active	Active
CCCCCCCCCCCCNC(=O)c1ccc[n+](CC2=C(C(=O)O)N3C(=O)[C@@H](NC(=O)Cc4ccccc4)[C@H]3SC2)c1.[I-]	> 128 µg/mL	16 µg/mL	> 128 µg/mL	0.5 µg/mL	291 µg/mL	inactive	inactive
CCCCCCCCCCNC(=O)c1ccc[n+](CC2=C(C(=O)OCc3ccc(OC)cc3)N3C(=O)[C@@H](NC(=O)Cc4ccccc4)[C@H]3SC2)c1.[I-]				0.25 µg/mL		Active	Active
C[C@@H](O)[C@H]1C(=O)N2C(C(=O)O)=C(S[C@@H]3CN[C@H](C(=O)N(C)C)C3)[C@H](C)[C@H]12 [MEROPENEM]	0.031 µg/mL (≈ 0.0808 µM)		0.031 µg/mL (≈ 0.0808 µM)		> 1280 µg/mL		
CCCC[n+]1ccc(SCC2=C(C(=O)OCc3ccc(OC)cc3)N3C(=O)[C@@H](NC(=O)Cc4ccccc4)[C@H]3SC2)cc1.O=C([O-])C(F)(F)F	32 µg/mL	16 µg/mL	16 µg/mL	0.125 µg/mL			
CCCCCCCCCCCCCCNC(=O)c1cc[n+](CC2=C(C(=O)O)N3C(=O)[C@@H](NC(=O)Cc4ccccc4)[C@H]3SC2)cc1.[I-]	> 128 µg/mL	16 µg/mL	> 128 µg/mL	4 µg/mL	151 µg/mL	inactive	inactive
CC(=O)OCC1=C(C(=O)O)N2C(=O)[C@@H](NC(=O)c3ccncc3)[C@H]2SC1	> 128 µg/mL	> 128 µg/mL	> 128 µg/mL	16 µg/mL (≈ 42.4 µM)			
CCCCCCCCNC(=O)c1ccc[n+](CC2=C(C(=O)O)N3C(=O)[C@@H](NC(=O)Cc4ccccc4)[C@H]3SC2)c1.[I-]	> 128 µg/mL	8 µg/mL	> 128 µg/mL	0.031 µg/mL	> 1280 µg/mL	inactive	inactive
CCCCCCNC(=O)c1cc[n+](CC2=C(C(=O)O)N3C(=O)[C@@H](NC(=O)Cc4ccccc4)[C@H]3SC2)cc1.[I-]	64 µg/mL	16 µg/mL	64 µg/mL	0.125 µg/mL	> 1280 µg/mL		
CCCCCCCCCC[n+]1ccc(C(=O)N[C@@H]2C(=O)N3C(C(=O)O)=C(COC(C)=O)CS[C@H]23)cc1.[I-]	> 128 µg/mL	128 µg/mL	> 128 µg/mL	128 µg/mL			
CCCCNC(=O)c1ccc[n+](CC2=C(C(=O)O)N3C(=O)[C@@H](NC(=O)Cc4ccccc4)[C@H]3SC2)c1.[I-]	128 µg/mL	32 µg/mL	64 µg/mL	0.125 µg/mL	> 1280 µg/mL		
CCCC[n+]1ccc(C(=O)N[C@@H]2C(=O)N3C(C(=O)OC(c4ccccc4)c4ccccc4)=C(COC(C)=O)CS[C@H]23)cc1.[I-]	> 128 µg/mL	128 µg/mL	> 128 µg/mL	128 µg/mL			
CCCCCCNC(=O)c1cc[n+](CC2=C(C(=O)OCc3ccc(OC)cc3)N3C(=O)[C@@H](NC(=O)Cc4ccccc4)[C@H]3SC2)cc1.[I-]				0.25 µg/mL			

Structure (SMILES)	MIC [1]	MIC (Enterococcus faecalis)	MIC (Escherichia coli)	MIC (Staphylococcus aureus [2])	HC50 at 1 h [3]	Activity (Staphylococcus aureus [4])	Activity (Staphylococcus aureus [5])
CC[n+]1ccc(SCC2=C(C(=O)OCc3ccc(OC)cc3)N3C(=O)[C@@H](NC(=O)Cc4ccccc4)[C@H]3SC2)cc1.O=C([O-])C(F)(F)F	16 µg/mL	16 µg/mL	16 µg/mL	0.125 µg/mL			
COc1ccc(COC(=O)C2=C(C[n+]3ccccc3)CS[C@@H]3[C@H](NC(=O)Cc4ccccc4)C(=O)N23)cc1.[I-]				0.25 µg/mL			
CCCCNC(=O)c1cc[n+](CC2=C(C(=O)OCc3ccc(OC)cc3)N3C(=O)[C@@H](NC(=O)Cc4ccccc4)[C@H]3SC2)cc1.[I-]				0.25 µg/mL			
CCCCCCCCCCCCCCNC(=O)c1ccc[n+](CC2=C(C(=O)OCc3ccc(OC)cc3)N3C(=O)[C@@H](NC(=O)Cc4ccccc4)[C@H]3SC2)c1.[I-]				0.25 µg/mL			
CCCCCCCCNC(=O)c1ccc[n+](CC2=C(C(=O)OCc3ccc(OC)cc3)N3C(=O)[C@@H](NC(=O)Cc4ccccc4)[C@H]3SC2)c1.[I-]				0.25 µg/mL		Active	Active
CCCCCC[n+]1ccc(-c2cc[n+](CC3=C(C(=O)OCc4ccc(OC)cc4)N4C(=O)[C@@H](NC(=O)Cc5ccccc5)[C@H]4SC3)cc2)cc1.[I-].[I-]	64 µg/mL	64 µg/mL	64 µg/mL	0.5 µg/mL	> 1280 µg/mL		
CCCCCCCCCCNC(=O)c1cc[n+](CC2=C(C(=O)OCc3ccc(OC)cc3)N3C(=O)[C@@H](NC(=O)Cc4ccccc4)[C@H]3SC2)cc1.[I-]				0.25 µg/mL		Active	Active
O=C(Cc1ccccc1)N[C@@H]1C(=O)N2C(C(=O)O)=C(CSc3ccncc3)CS[C@H]12	64 µg/mL (≈ 145 µM)	16 µg/mL (≈ 36.2 µM)	64 µg/mL (≈ 145 µM)	0.063 µg/mL (≈ 0.143 µM)			
CCCCCCCCCCNC(=O)c1ccc[n+](CC2=C(C(=O)O)N3C(=O)[C@@H](NC(=O)Cc4ccccc4)[C@H]3SC2)c1.[I-]	> 128 µg/mL	16 µg/mL	> 128 µg/mL	0.063 µg/mL	318 µg/mL	inactive	inactive
CCCCCCCCNC(=O)c1cc[n+](CC2=C(C(=O)O)N3C(=O)[C@@H](NC(=O)Cc4ccccc4)[C@H]3SC2)cc1.[I-]	> 128 µg/mL	16 µg/mL	> 128 µg/mL	0.063 µg/mL	> 1280 µg/mL	inactive	inactive
CC(=O)OCC1=C(C(=O)OC(c2ccccc2)c2ccccc2)N2C(=O)[C@@H](NC(=O)c3cc[n+](C)cc3)[C@H]2SC1.[I-]	> 128 µg/mL	> 128 µg/mL	> 128 µg/mL	128 µg/mL			
CCCCCCNC(=O)c1ccc[n+](CC2=C(C(=O)O)N3C(=O)[C@@H](NC(=O)Cc4ccccc4)[C@H]3SC2)c1.[I-]	64 µg/mL	16 µg/mL	64 µg/mL	0.125 µg/mL	> 1280 µg/mL		
CCCC[n+]1ccc(C(=O)N[C@@H]2C(=O)N3C(C(=O)O)=C(COC(C)=O)CS[C@H]23)cc1.[I-]	> 128 µg/mL	> 128 µg/mL	> 128 µg/mL	> 128 µg/mL			
CCCCCCCCCCNC(=O)c1cc[n+](CC2=C(C(=O)O)N3C(=O)[C@@H](NC(=O)Cc4ccccc4)[C@H]3SC2)cc1.[I-]	> 128 µg/mL	16 µg/mL	> 128 µg/mL	0.063 µg/mL	321 µg/mL	inactive	inactive
CCCCCCCC[n+]1ccc(-c2cc[n+](CC3=C(C(=O)OCc4ccc(OC)cc4)N4C(=O)[C@@H](NC(=O)Cc5ccccc5)[C@H]4SC3)cc2)cc1.[I-].[I-]	128 µg/mL	32 µg/mL	128 µg/mL	0.5 µg/mL	> 1280 µg/mL		
CCCCCCCC[n+]1ccc(-c2cc[n+](CC3=C(C(=O)[O-])N4C(=O)[C@@H](NC(=O)Cc5ccccc5)[C@H]4SC3)cc2)cc1.O=C([O-])C(F)(F)F	64 µg/mL	16 µg/mL	64 µg/mL	0.125 µg/mL	> 1280 µg/mL		
CC(=O)OCC1=C(C(=O)O)N2C(=O)[C@@H](NC(=O)c3cc[n+](C)cc3)[C@H]2SC1.[I-]	> 128 µg/mL	> 128 µg/mL	> 128 µg/mL	128 µg/mL			
CCCCCCNC(=O)c1ccc[n+](CC2=C(C(=O)OCc3ccc(OC)cc3)N3C(=O)[C@@H](NC(=O)Cc4ccccc4)[C@H]3SC2)c1.[I-]				0.25 µg/mL			
CCCCCC[n+]1ccc(SCC2=C(C(=O)OCc3ccc(OC)cc3)N3C(=O)[C@@H](NC(=O)Cc4ccccc4)[C@H]3SC2)cc1.O=C([O-])C(F)(F)F	64 µg/mL	16 µg/mL	64 µg/mL	0.063 µg/mL			
CCCCCCCCCCCCNC(=O)c1ccc[n+](CC2=C(C(=O)OCc3ccc(OC)cc3)N3C(=O)[C@@H](NC(=O)Cc4ccccc4)[C@H]3SC2)c1.[I-]				0.25 µg/mL			
